Laboratory results: patent US7842682B2, “Boronated metal-phthalocyanines, process for their preparation, pharmaceutical compositions comprising them and use thereof” (L. Molteni & C. Dei Fratelli Alitti, priority 2003, dated 2010)
“Also recorded” adds a separate entry of the source.

Assays:
[1] = tested on: B16F1 transplanted pigmented melanoma; test: BNCT: rate of tumour growth after thermal neutron irradiation in melanoma bearing mice; type: in vivo, C57/BL6 mice
Experimental: FIG. 7: Rate of tumour growth as a function of post-irradiation time in C57/BL6 mice bearing a B16F1 transplanted pigmented melanoma which have been intravenously injected with 6.0 mg/kg boronated phthalocyanine prepared according to Example 23, as a DOPC liposomal preparation, and at 24 hours from injection were irradiated by thermal neutrons for 20 and 30 min. The growth profile of the radiosensitized pigmented melanoma is compared with that obtained for untreated control mice.

[2] = tested on: melanocytes deriving from murine pigmented melanoma B16-F1; test: Photosensitization of B16-F1 melanocytes, survival by Trypan Blue exclusion test; type: cell-based; details: 24 hrs incubation, DPPC or DOPC liposomal preparation 7 microM; red light 600-750 nm, 50 mW/cm^2; irradiation times as low as 10 min
Experimental: Irradiations were performed as described above for FIG. 1.
Melanocytes were incubated (24 hrs) with a DPCC or DOPC liposomal phthalocyanine preparation (7 microM). After incubation, the cells were washed with PBS and irradiated with red visible light (600-750 nm, 50 mW/cm^2). Survival was determined after the photo-treatment (18-24 hrs) by the Trypan Blue exclusion test. Results for delivered phthalocyanine are summarised in FIG. 3A (DPPC liposomes) and in FIG. 3B (DOPC liposomes).

[3] = Pharmacokinetics and tissue distribution in B16-F1 pigmented melanoma bearing mice; type: in vivo, C57/BL6 mice
Experimental: Toward this aim, once tumours had reached the volumes of […], the boronated phthalocyanine as DPPC liposomal preparation (0.75 mg/kg) or as a DOPC liposomal preparation (3 mg/kg) was systemically administered. […]

[4] = Photostability (photobleaching) under visible light irradiation, spectrophotometric; type: physicochemical; details: irradiated as for FIG. 1; compared with not-boronated (unsubstituted zinc) phthalocyanine
From the text: FIG. 2A: Absorption spectrum and determination of the degraded unsubstituted zinc phthalocyanine, irradiated according to the experimental conditions described above for FIG. 1.
It is known that most phthalocyanines are subjected to a more or less extensive photobleaching under visible light irradiation. It is therefore important to define if the rate constant of this process is too fast, so that the active principle is photodegraded at a high rate, which could negatively interfere with the photosensitization of cells or other substrates. […] Results obtained with a not substituted phthalocyanine are reported. In FIG. 2A as a reference. From comparison of the plots shown in FIGS. 2A and 2B it may be concluded that • 1- the boron substituted molecules prepared according to the present invention are as useful photosensitizers able to absorb red visible light as the unsubstituted ones; • 2- the photobleaching kinetics undergoes only limited changes when the phthalocyanine structure is modified by introduction of boronated groups. […] Assessment of Activity on Biological Substrates

[5] = tested on: B16F1 transplanted pigmented melanoma; test: PDT: rate of tumour growth after red light irradiation in melanoma bearing mice; type: in vivo, C57/BL6 mice
Experimental: The tumour response is most evident if the irradiations are carried out at 3 h after injection of the photosensitizer.

| Substance | tumour necrosis after BNCT ([1]; 6.0 mg/kg i.v. in DOPC liposomes, thermal neutrons at 24 h) | tumour growth after BNCT ([1]; 6.0 mg/kg i.v. in DOPC liposomes, thermal neutrons at 24 h for 20 and 30 min, versus untreated control mice) | amount of phthalocyanine accumulated in the tumour ([1]; 24 h after i.v. injection in DOPC liposomes) | cell survival after photo-treatment [2] | clearance from plasma ([3]; DPPC liposomes 0.75 mg/kg or DOPC liposomes 3 mg/kg, systemically administered) | clearance from liver and spleen ([3]; delivered via DOPC liposomes, after 1 week from injection) | recovery from liver and spleen ([3]; delivered via liposomes) | amount found in the skin (peritumoural tissue) ([3]; mouse, in vivo) | recovery from the kidneys ([3]; mouse, in vivo) | photobleaching [4] | rate of tumour growth after PDT ([5]; 6.0 mg/kg i.v., DOPC liposomal preparation, 670 nm, 200 mW/cm^2, 250 J/cm^2) | tumour response by interval between injection and irradiation ([5]; irradiations carried out at 3 h after injection of the photosensitizer) |
| --- | --- | --- | --- | --- | --- | --- | --- | --- | --- | --- | --- | --- |
| 1,8(11),15(18),22(25)-tetrakis-{[4-(^10B-o-carboran-1-yl)methyl]phenoxy}phthalocyaninate zinc(II) [Example 23] | extensive tumour necrosis | significant delay in tumour growth | sufficient to achieve the BNCT effect | – | – | – | – | – | – | – | – | – |
| 1,8(11),15(18),22(25)-tetrakis-{[4-(^11B-o-carboran-1-yl)methyl]phenoxy}-phthalocyaninate zinc(II) [Example 21] | – | – | – | almost complete cell mortality | rapid with no product residue at 24 hrs after the treatment | largely cleared | large recovery; also recorded: accumulated in large amounts | small amounts | Very limited amounts | more extensive photobleaching | significant delay in the rate of tumour growth | most evident |
